Reference: patent publication US20260354380A1, “PYRAZOLO PESTICIDAL COMPOUNDS” (BASF SE, priority 2022, published 2026)

How the values were obtained:
Format in all cases: in vivo
Plutella xylostella = experiment: Action on Diamond Back Moth (Plutella xylostella), cabbage leaf dip, 3rd instar larvae; conditions: 300 ppm, 3rd instar larvae, 72 hours after treatment
Experimental: Example B6: Action on Diamond Back Moth (Plutella xylostella)
The active compound is dissolved at the desired concentration in a mixture of 1:1 (v/v) distilled water:acetone. Surfactant (Kinetic® HV) is added at a rate of 0.01% (v/v). The test solution is prepared at the day of use.
Leaves of cabbage were dipped in test solution and air-dried. Treated leaves were placed in petri dishes lined with moist filter paper and inoculated with ten 3rd instar larvae. Mortality was recorded 72 hours after treatment. Feeding damages were also recorded using a scale of 0-100%.
(§1) Compounds disclosed in the document WO2021013561 were prepared according to procedures described therein and their pesticidal activities were determined by procedure analogues to the procedures as described above in examples B6 and B7.

Anthonomus grandis = experiment: Action on Boll Weevil (Anthonomus grandis); conditions: 800 ppm, egg and larval mortality, 5 days
Experimental: Example B3: Action on Boll Weevil (Anthonomus grandis)
For evaluating control of boll weevil (Anthonomus grandis) the test unit consisted of 96-well-microtiter plates containing an insect diet and 5-10 A. grandis eggs.
The compounds were formulated using a solution containing 75% (v/v) water and 25% (v/v) DMSO. Different concentrations of formulated compounds were sprayed onto the insect diet at 5 μl, using a custom-built micro atomizer, at two replications.
After application, microtiter plates were incubated at about 25±1 °C and about 75±5% relative humidity for 5 days. Egg and larval mortality were then visually assessed.

Heliothis virescens = experiment: Action on Tobacco Budworm (Heliothis virescens); conditions: 800 ppm, egg and larval mortality, 5 days
Experimental: Example B5: Action on Tobacco Budworm (Heliothis virescens)
For evaluating control of tobacco budworm (Heliothis virescens) the test unit consisted of 96-well-microtiter plates containing an insect diet and 15-25 H. virescens eggs.
The compounds were formulated using a solution containing 75% v/v water and 25% v/v DMSO. Different concentrations of formulated compounds were sprayed onto the insect diet at 10 μl, using a custom-built micro atomizer, at two replications.
After application, microtiter plates were incubated at about 28±1 °C and about 80±5% relative humidity for 5 days. Egg and larval mortality were then visually assessed.

Spodoptera eridania = experiment: Action on Southern Armyworm (Spodoptera eridania), 2nd Instar Larvae; conditions: 300 ppm, 2nd instar larvae, 4 days after treatment
Experimental: Example B7: Action on Southern Armyworm (Spodoptera eridania), 2nd Instar Larvae
The active compounds were formulated by a Tecan liquid handler in 100% cyclohexanone as a 10,000 ppm solution supplied in tubes. The 10,000 ppm solution was serially diluted in 100% cyclohexanone to make interim solutions. These served as stock solutions for which final dilutions were made by the Tecan in 50% acetone: 50% water (v/v) into 10 or 20 ml glass vials. A nonionic surfactant (Kinetic®) was included in the solution at a volume of 0.01% (v/v). The vials were then inserted into an automated electrostatic sprayer equipped with an atomizing nozzle for application to plants/insects.
Lima bean plants (variety Sieva) were grown 2 plants to a pot and selected for treatment at the 1st true leaf stage. Test solutions were sprayed onto the foliage by an automated electrostatic plant sprayer equipped with an atomizing spray nozzle. The plants were dried in the sprayer fume hood and then removed from the sprayer. Each pot was placed into perforated plastic bags with a zip closure. About 10 to 11 armyworm larvae were placed into the bag and the bags zipped closed. Test plants were maintained in a growth room at about 25 °C and about 20-40% relative humidity for 4 days, avoiding direct exposure to fluorescent light (24 hour photoperiod) to prevent trapping of heat inside the bags. Mortality and reduced feeding were assessed 4 days after treatment, compared to untreated control plants.
as §1

Aedes aegypti = experiment: whole plant or invertebrate; conditions: for mortality in comparison with untreated controls: 800 ppm, larvae, 2 days
Experimental: Example B1: Action on Yellow Fever Mosquito (Aedes aegypti)
For evaluating control of yellow fever mosquito (Aedes aegypti) the test unit consisted of 96-well-microtiter plates containing 200 μl of tap water per well and 5-15 freshly hatched A. aegypti larvae.
The active compounds or mixtures were formulated using a solution containing 75% (v/V) water and 25% (v/v) DMSO. Different concentrations of formulated compounds or mixtures were sprayed onto the insect diet at 2.5 μl, using a custom-built micro atomizer, at two replications. For experimental mixtures in these tests identical volumes of both mixing partners at the desired concentrations respectively, were mixed together.
After application, microtiter plates were incubated at 28±1 °C, 80±5% RH for 2 days. Larval mortality was then visually assessed.

SMILES | mortality in comparison with untreated controls (Plutella xylostella) | mortality in comparison with untreated controls (Anthonomus grandis) | mortality in comparison with untreated controls (Heliothis virescens) | mortality in comparison with untreated controls (Spodoptera eridania) | mortality in comparison with untreated controls (Aedes aegypti) | mortality at 300 ppm (Plutella xylostella; Plutella xylostella, foliar, read-out: mortality in comparison with untreated controls) | mortality at 800 ppm (Anthonomus grandis; Anthonomus grandis, 120 h, read-out: mortality in comparison with untreated controls) | mortality at 800 ppm (Heliothis virescens; Heliothis virescens, 120 h, read-out: mortality in comparison with untreated controls) | mortality at 300 ppm (Spodoptera eridania; Spodoptera eridania, 96 h, read-out: mortality in comparison with untreated controls) | mortality at 800 ppm (Aedes aegypti; Aedes aegypti, 48 h, read-out: mortality in comparison with untreated controls)
Cc1ccc(C(C)C)c(N2C(=O)CSC2=NC(=O)Nc2ccc(-n3cc(NC(=O)c4ccc(C5CC5(F)F)cc4)c(C)n3)cc2)c1 (racemic) [Example C-65] | at least 75% | at least 75% | at least 75% | at least 75% | at least 50% |  |  |  |  | 
Cc1ccc(C(C)C)c(N2C(=O)CS/C2=N\C(=O)Nc2ccc(-n3nc(C)c(NC(=O)c4ccc(OC(F)(F)F)cc4)c3C3CC3)cc2)c1 [Example C-5, N-[5-cyclopropyl-1-[4-[[(Z)-[3-(2-isopropyl-5-methyl-phenyl)-4-oxo-thiazolidin-2-ylidene]carbamoyl]amino]phenyl]-3-methyl-pyrazol-4-yl]-4-(trifluoromethoxy)benzamide] |  |  |  |  |  | ≥ 75% | ≥ 75% | ≥ 75% | ≥ 75% | ≥ 50%
Cc1nn(-c2ccc(NC(=O)N=C3SCC(=O)N3c3ccccc3C(C)C)cc2)cc1NC(=O)c1ccc(OC(F)(F)F)cc1 [Example C-8] | at least 75% | at least 75% | at least 75% | at least 75% | at least 50% |  |  |  |  | 
Cc1ccc(C(F)(F)F)c(N2C(=O)CSC2=NC(=O)Nc2ccc(-n3cc(NC(=O)c4ccc(OC(F)(F)F)cc4)c(C)n3)cc2)c1 [Example C-12] | at least 75% | at least 75% | at least 75% | at least 75% | at least 50% |  |  |  |  | 
Cc1ccc(C(C)C)c(N2C(=O)CS/C2=N\C(=O)Nc2ccc(-n3cc(NC(=O)c4ccc(OC(F)(F)F)cc4)c(C)n3)cc2C#N)c1 [Example C-13] | at least 75% | at least 75% | at least 75% | at least 75% | at least 50% |  |  |  |  | 
COc1cc(-n2cc(NC(=O)c3ccc(OC(F)(F)F)cc3)c(C)n2)ccc1NC(=O)/N=C1\SCC(=O)N1c1cc(C)ccc1C(C)C [Example C-14] | at least 75% | at least 75% | at least 75% | at least 75% | at least 50% |  |  |  |  | 
Cc1ccc(C(C)C)c(N2C(=O)CS/C2=N\C(=O)Nc2ccc(-n3nc(C)c(NC(=O)c4ccc(OC(F)(F)F)cc4)c3C)cc2)c1 [Example C-15] | at least 75% | at least 75% | at least 75% | at least 75% | at least 50% |  |  |  |  | 
Cc1ccc(C(F)(F)F)c(N2C(=O)CS/C2=N\C(=O)Nc2ccc(-n3nc(C)c(NC(=O)c4ccc(OC(F)(F)F)cc4)c3C)cc2)c1 [Example C-16] | at least 75% | at least 75% | at least 75% | at least 75% | at least 50% |  |  |  |  | 
Cc1ccc(C(C)C)c(N2C(=O)CS/C2=N\C(=O)Nc2ccc(-n3nc(C)c(NC(=O)c4ccc(OC(F)(F)F)c(F)c4)c3C)c(F)c2)c1 [Example C-21] | at least 75% | at least 75% | at least 75% | at least 75% | at least 50% |  |  |  |  | 
Cc1ccc(C(C)C)c(N2C(=O)CS/C2=N\C(=O)Nc2ccc(-n3cc(NC(=O)c4ccc(Cl)c(Cl)c4)c(C)n3)cc2)c1 [Example C-26] | at least 75% | at least 75% | at least 75% | at least 75% | at least 50% |  |  |  |  | 
Cc1ccc(C(C)C)c(N2C(=O)CS/C2=N\C(=O)Nc2ccc(-n3cc(NC(=O)c4ccc(F)c(Cl)c4)c(C)n3)cc2)c1 [Example C-28] | at least 75% | at least 75% | at least 75% | at least 75% | at least 50% |  |  |  |  | 
Cc1ccc(C(C)C)c(N2C(=O)CS/C2=N\C(=O)Nc2ccc(-n3cc(NC(=O)c4ccc(Br)cc4)c(C)n3)cc2)c1 [Example C-30] | at least 75% | at least 75% | at least 75% | at least 75% | at least 50% |  |  |  |  | 
C#CCOc1ccc(C(=O)Nc2cn(-c3ccc(NC(=O)N=C4SCC(=O)N4c4cc(C)ccc4C(C)C)cc3)nc2C)cc1 [Example C-67] | at least 75% |  | at least 75% | at least 75% | at least 50% |  |  |  |  | 
Cc1ccc(C(C)C)c(N/C(=N/C(=O)Nc2ccc(-n3cc(NC(=O)c4ccc(OC(F)(F)F)cc4)c(C)n3)cc2)SCOC(=O)C(C)C)c1 [Example C-129] | at least 75% | at least 75% | at least 75% |  | at least 50% |  |  |  |  | 
